From article PMC7116804 (Green chemistry : an international journal and green …, 2019) come the findings set out here.

This test has as its target Aa-ADH (Aromatoleum aromaticum, UniProt Q5P5I4). Description: oxidation of diol […] isomer mixture, product analysis. In kind it is biochemical. Particulars: NAD+ 1 mM recycled by NOX; Tris-HCl pH 7.5, 30 °C, 24 h.

Aa-ADH, sequence (Q5P5I4 2-249): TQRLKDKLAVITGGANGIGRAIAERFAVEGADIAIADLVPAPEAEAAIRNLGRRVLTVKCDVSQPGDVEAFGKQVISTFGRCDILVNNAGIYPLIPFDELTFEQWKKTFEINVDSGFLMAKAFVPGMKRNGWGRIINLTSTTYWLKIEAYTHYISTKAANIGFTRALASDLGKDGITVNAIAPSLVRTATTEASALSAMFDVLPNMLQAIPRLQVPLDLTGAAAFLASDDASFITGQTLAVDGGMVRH

For `C[C@@H](O)[C@H](O)c1ccccc1` [1R,2R-3], the “oxidation of diol 3 isomer mixture, product analysis” value is “Aa-ADH oxidized 1R,2R-3, 1S,2S-3 and 1R,2S-3”.
On to `C[C@H](O)[C@@H](O)c1ccccc1` [1S,2S-3], for which the “oxidation of diol 3 isomer mixture, product analysis” value is “Aa-ADH oxidized 1R,2R-3, 1S,2S-3 and 1R,2S-3”.
